Results as given in PMC9701179, “New tricyclic systems as photosensitizers towards triple negative breast cancer cells” (Archives of Pharmacal Research, 2022).
Like-named read-outs stand apart in the source and are kept apart here.

Legend:
[1] = system: MDA-MB-231 cells; experiment: MTT cytotoxicity/photocytotoxicity test on human TNBC MDA-MB-231 cells; format: cell-based; settings: Homo sapiens
Experimental: The irradiation device used for the irradiation of cell cultures during the assays was a black box equipped with two Philips UVA lamps with an irradiance of 17 mW cm^−2 and a centered emission peak at 365 nm; UVA irradiance was measured using a Waldmann Variocontrol radiometer, equipped with a UVA sensor. The box was maintained at room temperature inside with a fan and the multiwell plates were placed onto a water-refrigerated metal block.
Human triple negative (TNBC) breast MDA-MB-231 carcinoma cells were obtained from American Type Culture Collection (ATCC, Rockville, MD, USA). Human embryonic kidney HEK293 cells were obtained from the European Collection of Cell Cultures (ECACC, Salisbury, UK). Cell lines were maintained in the logarithmic phase at 37 °C in a 5% CO2 atmosphere using the following culture media containing 10% foetal calf serum (Euroclone, Milan, Italy), antibiotics (50 units/mL penicillin and 50 μg/mL streptomycin) and 2 mM l-glutamine: (i) RPMI-1640 medium (Euroclone, Milan, Italy) for MDA-MB-231 4 cells; (ii) DMEM (Euroclone, Milan, Italy) for HEK293 cells.
Cells (5–8 × 10^3 cells/well, dependent upon the growth characteristics of the cell line) were seeded in 96-well microplates in growth medium (100 μL). After 24 h, the medium was removed and replaced with a fresh one containing the compound to be studied at the appropriate concentration. Triplicate cultures were established for each treatment. For photocytotoxicity studies, after 1 h of incubation the medium was replaced with PBS and cells were treated with 2.0 J cm^−2 of UVA light. After irradiation, PBS was replaced with complete proliferation media. For pre-irradiation studies, instead, compounds in PBS were irradiated with 2.0 J cm^−2 of UVA light and subsequently cells were treated with pre-irradiated solutions. Following 24 h, each well was treated with 10 μL of a 5 mg/mL MTT saline solution, and following 5 h of incubation, 100 μL of a sodium dodecyl sulfate (SDS) solution in HCl 0.01 M were added. After an overnight incubation, cell growth inhibition was detected by measuring the absorbance of each well at 570 nm using a Bio-Rad 680 microplate reader. Mean absorbance for each drug dose was expressed as a percentage of the control untreated well absorbance and plotted against drug concentration. IC50 values, the drug concentrations that reduce the mean absorbance at 570 nm to 50% of those in the untreated control wells, were calculated by the four-parameter logistic (4-PL) model. Evaluation was based on means from at least four independent experiments.
The new synthetized pyrrolo[1,2-h][1,7]naphthyridinones 7 and pyrido[2,3-c]pyrrolo[1,2-a]azepinones 8 were screened for their cytotoxicity (in the dark) and photocitotoxicity (upon UVA light irradiation at 2.0 J/cm^2) profile on human TNBC cells, MDA-MB-231. The cytotoxicity/photocytotoxicity parameters, expressed in terms of IC50 values obtained by MTT test after 24 h of drug-exposure, are listed in Table 2.

[2] = system: MDA-MB-231 cells; experiment: Quantification of thiols (DTNB assay); format: cell-based, human; settings: MDA-MB-231, 25 µM; for Intracellular thiols (qualitative): UVA 2.0 J/cm^2
Experimental: The MDA-MB-231 cells (2 × 10^5) were seeded in a six-well plate in growth medium (4 mL). After 24 h, cells were incubated with tested compounds (25 µM) for 90 min, and after that exposed to UVA light (2.0 J/cm^2). Subsequently, after 24 h, the thiol content was measured as previously described (Rigobello et al. [2009]).
Fig. 4 Cellular ROS production (A) and total thiol redox state (B). A Effect of UVA activated tested compounds (25 µM) or antimycin (3 µM) on hydrogen peroxide formation in MDA-MB-231 cancer cells. B Sulfhydryl content in MDA-MB-231 cancer cells incubated for 24 h with UVA activated tested compounds. The sulfhydryl group amount was determined by the DTNB assay. Error bars indicate S.D

[3] = system: MDA-MB-231 cells; experiment: Cell death induction (Hoechst / PI staining, confocal microscopy); format: cell-based, human; settings: MDA-MB-231, IC50 doses, 24 h
Experimental: MDA-MB-231 cells were seeded into 8-well tissue-culture slides (BD Falcon, Bedford, MA, USA) at 5 × 10^4 cells/well (0.8 cm^2). After 24 h, the cells were washed twice with PBS and, following 24 h of treatment with IC50 doses of the tested compound, cells were stained for 5 min with 10 µg/mL of Hoechst 33258 (20-(4-hydroxyphenyl)-5-(4-methyl-1-piperazinyl)-2,50-bi-1H-benzimidazole trihydrochloride hydrate, Sigma-Aldrich, St.Louis, MI, USA) or propidium iodide (PI, Sigma-Aldrich, St.Louis, MI, USA) in PBS. Samples were examined at × 5 and × 40 magnification in a Zeiss LSM 800 confocal microscope using the Zeiss ZEN 2.3 software system.
Fig. 5 Effects on mitochondrial membrane potential (A) and cell death induction (B) in human breast MDA-MB-231 cancer cells. A Cells were treated with 7h and 8e and stained with TMRM (10 nM). Fluorescence was estimated at 490 nm (excitation) and 590 nm (emission). Data are the means of five independent experiments. Error bars indicate S.D. * P < 0.05. B Cells were treated with concentrations of 7h and 8e equal to IC50 for 24 h and stained with the fluorescent dyes Hoechst 33342 and PI
Loss of mitochondrial transmembrane potential is a crucial step in the activation of intrinsic apoptotic cell death. […] MDA-MB-231 cells were treated with IC50 doses of tested compounds and apoptotic cell death induction was confirmed through a Hoechst 33342 staining assay.

[4] = MDA-MB-231, in the dark, 1 h pre-treatment, recovered for total 24 h, read-out: Dark IC50 (µM) ± S.D
[5] = light or radiation study, MDA-MB-231, 1 h pre-treatment, UVA 2.0 J/cm^2, recovered for total 24 h, read-out: UVA (2.0 J/cm^2) IC50 (µM) ± S.D

CCOC(=O)c1ccc2n1CCCc1cc(S(=O)(=O)c3ccccc3)c(OC)nc1-2 [Compound 8e, Ethyl 3-(benzenesulfonyl)-2-methoxy-6,7-dihydro-5H-pyrido[2,3-c]pyrrolo[1,2-a]azepine-9-carboxylate]
IC50 [1, 4]: > 50 µM
IC50 [1, 5]: 15.3 ± 1.7 µM
Intracellular thiols (qualitative) [2]: significantly decreased
Apoptotic cell death induction (Hoechst 33342 staining) [3]: positive to Hoechst 33342 staining
Necrosis induction (PI staining) [3]: poor stained with PI

CCOC(=O)c1ccc2n1CCc1cc(S(=O)(=O)c3ccccc3)c(OC)nc1-2 [Compound 7h, Ethyl 3-(benzenesulfonyl)-2-methoxy-5,6-dihydropyrrolo[1,2-h][1,7]naphthyridine-8-carboxylate]
IC50 [1, 4]: > 50 µM
IC50 [1, 5]: 4.4 ± 0.5 µM
Intracellular thiols (qualitative) [2]: significantly decreased
Decrease of intracellular sulfhydryl content ([2]; UVA 2.0 J/cm^2, after 24 h of exposure): about 45%
Apoptotic cell death induction (Hoechst 33342 staining) [3]: positive to Hoechst 33342 staining
Necrosis induction (PI staining) [3]: poor stained with PI
